Test results published in article PMC12179037, “Degradation of beechwood xylan using food-grade bacteria-like particles displaying β-xylosidase from Limosilactobacillus fermentum” (Bioresources and Bioprocessing, 2025).

Target: T1, Xyl-L-CshA (LfXyl43 β-xylosidase with C-terminal CshA anchor) (Limosilactobacillus fermentum, UniProt Z9FCD9CVP2)
T1 construct: LfXyl43 fused through (GGGGS)3 linker to C-terminal surface anchor CshA of Lactiplantibacillus plantarum SK156; 6xHis tag; pET21b(+), E. coli BL21(DE3)
T1 sequence (Z9FCD9CVP2 1-551): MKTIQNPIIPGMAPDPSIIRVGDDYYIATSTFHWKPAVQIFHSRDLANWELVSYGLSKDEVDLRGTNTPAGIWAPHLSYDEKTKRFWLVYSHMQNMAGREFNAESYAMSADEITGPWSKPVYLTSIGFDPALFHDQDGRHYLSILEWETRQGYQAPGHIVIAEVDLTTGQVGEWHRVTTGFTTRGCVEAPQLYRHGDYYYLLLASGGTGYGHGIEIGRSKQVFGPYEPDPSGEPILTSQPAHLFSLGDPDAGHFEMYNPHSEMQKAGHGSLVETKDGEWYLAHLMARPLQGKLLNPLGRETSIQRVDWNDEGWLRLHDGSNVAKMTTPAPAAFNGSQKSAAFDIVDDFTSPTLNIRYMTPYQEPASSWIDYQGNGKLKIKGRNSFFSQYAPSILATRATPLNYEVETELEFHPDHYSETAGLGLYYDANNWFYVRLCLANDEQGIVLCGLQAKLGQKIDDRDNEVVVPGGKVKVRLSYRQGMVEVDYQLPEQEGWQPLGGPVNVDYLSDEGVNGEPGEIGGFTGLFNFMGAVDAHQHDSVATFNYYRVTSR
Assay: reducing sugar release (DNSA, […] nm); TLC
Type: biochemical
Conditions: purified fusion protein immobilised on bacteria-like particles; 2 mM substrate; 50 mM sodium phosphate pH 7.0; 35 °C; 5 min

**Q.** For `OC1OC[C@@H](O[C@@H]2OC[C@@H](O)[C@H](O)[C@H]2O)[C@H](O)[C@H]1O` (stereo partly shown) [xylobiose], which “reducing sugar release (DNSA, 540 nm); TLC” value is on record?
**A.** Its value is “CshA-L-Xyl and Xyl-L-CshA (i.e., with linker peptide) had higher catalytic activity towards all XOS substrates”.
